Laboratory results taken from patent US11474098B2, “Drug target for preventing pathologic calcium overload in cardiomyocytes and methods of screening for same” (THE TRUSTEES OF COLUMBIA UNIVERSITY IN THE CITY OF NEW YORK, priority 2017, dated 2022).
Like-named read-outs stand apart in the source and are kept apart here.

Assays:
isolated cardiomyocytes = assay: Fractional shortening (sarcomere length) of field-stimulated isolated cardiomyocytes; type: cell-based, mouse; conditions: for increase in fractional shortening: 200 nM isoproterenol with 300 nM nisoldipine, 1-Hz
Description: Myocytes were field stimulated at 1-Hz. Percent contraction of sarcomere length was measured using the SarcLen module of Ionoptix and calculated as the difference of shortest sarcomere length during a contraction subtracted from the relaxed sarcomere length, divided by the relaxed sarcomere length, all averaged over at least 8 contractions.
We next exploited the findings that transgenic β-less AID-mutant α1C channels are insensitive to PKA modulation to probe the specific role of CaV1.2 modulation in the positive inotropic effect of β-adrenergic agonists in both isolated cardiomyocytes and in the whole heart. […] By contrast, this response was severely diminished in cardiomyocytes expressing transgenic β-less AID-mutant α1C channels in which isoproterenol produced a relatively meager 25% increase in fractional shortening (FIG. 10B and FIG. 10C).

phospholamban = assay: Immunoblot of phospholamban Ser16 phosphorylation in cardiomyocytes; type: cell-based, mouse; conditions: AID-mutant transgenic mice cardiomyocytes; 200 nM isoproterenol
Description: Cells were exposed to 200 nM isoproterenol. Protein extracts were size-fractionated on SDS-PAGE, transferred to nitrocellulose and blotted with anti-pSer16 phospho-specific antibody (upper blot), and anti-PLB antibody (lower blot). Representative of three similar experiments.
Cardiac lysates from 6-12-week-old doxycycline-fed transgenic mice were prepared from either whole hearts or isolated ventricular cardiomyocytes (Yang et al. 2013). Immunoprecipitations were performed in modified RIPA buffer consisting of 50 mM Tris HCl; pH 7.4, 150 mM NaCl, Triton X-100 (0.25%), 10 mM EDTA, 10 mM EGTA, 10 μM Calpain inhibitor I, 10 μM Calpain inhibitor II, and Complete Mini-tablets (1 per 7 ml), using anti-FLAG antibody (Sigma) overnight. Immune complexes were collected using protein A (Amersham) for 2 h, followed by extensive washing. Proteins were size-fractionated, transferred to nitrocellulose membranes and probed with anti-FLAG antibody (Sigma), anti-tubulin antibody (Santa Cruz), custom anti-α1C and anti-β2 antibodies (Yang et al. 2013), and phospholamban antibodies (Badrilla). Detection was performed with a CCD camera (Carestream Imaging), and ImageQuant software was used for quantification. […]

CaV1.2 channels [1] = test system: CaV1.2 channels
Description: Membrane currents from isolated mouse ventricular cardiomyocytes (O'Connell et al. 2007) were measured by the whole-cell patch-clamp method using a MultiClamp 700B amplifier and pCLAMP 10 software (Molecular Devices) as described (Yang et al. 2013). The pipette solution contained (in mM): 40 CsCl, 90 Cs gluconate, 10 BAPTA, 1 MgCl2, 4 Mg-ATP, 2 CaCl2, and 10 HEPES, adjusted to pH 7.2 with CsOH. After the isolated cardiomyocytes were adequately buffered with 10 mM BAPTA in the internal solution, the isolated cardiomyocytes were superfused with (in mM): 140 TEA-CI, 1.8 CaCl2, 1 MgCl2, 10 glucose, and 10 HEPES, adjusted to pH 7.4 with CsOH. For experiments in tsA-201 cells, TEA-CI was reduced to 130 mM, and BaCl2 (10 mM) was used instead of CaCl2. Pipette series resistances were usually <1 MΩ after 60% compensation. Leak currents and capacitance transients were subtracted by a P/4 protocol. Voltages were corrected for the liquid junction potential of −10 mV. To measure Ca^2+ peak currents, the cell membrane potential was held at −50 mV and stepped to +10 mV for 350 ms every 10 seconds. To evaluate the current-voltage (I-V) relationship for Ca^2+ currents, the same protocol was repeated with steps between −50 mV to +50 mV in 10 mV increments. All experiments were performed at room temperature, 22±1° C. The parameters of voltage-dependent activation were obtained using a modified Boltzmann distribution: I(V)=Gmax*(V−Erev)/[1+exp(Vmid−V)/Vc)], where I(V) is peak current, Gmax is maximal conductance, Erev is reversal potential, Vmid is the midpoint, and Vc is the slope factor.
We next determined the sensitivity of CaV1.2 channels containing either transgenic pWT α1C or AID-mutant α1C to PKA modulation.

[2] = test system: left ventricular contraction in isolated Langendorff-perfused hearts; assay: Ex vivo cardiac contractility, Langendorff-perfused hearts with left ventricular balloon; design: species or system mouse; conditions: for increase in contractility in response to isoproterenol: native CaV1.2 first inhibited with nisoldipine; for increase in cardiac contractility: 200 nM isoproterenol with 300 nM nisoldipine, paced at 400 beats per minute
Description: Hearts from these mice are isolated and contractility is assessed by placing a balloon in the left ventricle.
The cannulated hearts were retrogradely perfused on a Langendorff system with a modified Krebs solution (118.5 mM NaCl, 25 mM NaHCO3, 4.7 mM KCl, 1.2 mM MgSO4, 1.2 mM KH2PO4, 11 mM glucose, 1.8 mM Ca^2+). Left ventricular pressure was measured using a balloon catheter connected to an APT-300 pressure transducer, which was connected to a Powerlab digitizer (ADInstruments). […] Peak LV pressure during the 3-minute period was used for the assessment of β-adrenergic agonist stimulation.
We then assessed the role of CaV1.2 modulation in β-adrenergic agonist-induced positive inotropy at the whole organ level by inserting a pressure-transduced balloon into the left ventricle of Langendorff-perfused transgenic mice hearts. This approach enabled measurement of cardiac contractility independent of vascular or systemic effects. Hearts were paced at 400 beats per minute to remove the potentially confounding effect of heart rate variability on contractility (Kushnir et al. 2014). […] By contrast, using the same experimental paradigm in hearts from β-less AID-mutant transgenic mice, the response to isoproterenol was nearly abolished, yielding an average increase in cardiac contractility of only 1.2-fold (FIG. 10H and FIG. 10I).

CaV1.2 channels [3] = conditions: Katchman et al. 2017; cited from earlier work
CaV1.2 channels [4] = assay: Whole-cell Ba2+ currents of adenovirus-infected cultured guinea pig ventricular myocytes; type: cell-based; conditions: control cells expressing GFP or YFP-tagged mutant (YWI/AAA) AID peptide; 1 μM forskolin
Description: Replication deficient adenoviral vectors expressing AID-YFP and AIDmut-YFP were generated using the AdEasy Adenoviral Vector System (Agilent Technologies) according to the manufacturer's instructions. Briefly, sequences for AID-YFP and AIDmut-YFP were PCR-amplified and cloned into pShuttle-CMV vector. After linearization with PmeI, shuttle vectors were electroporated into BJ5183 cells containing pAdEasy-1 viral plasmid. Positive recombinants were amplified, linearized with Pac I, and transfected into AD-293 cells using the calcium phosphate precipitation method. Transfected cells were monitored for development of adenoviral plaques, after which the cells were freeze-thawed and the lysate used to infect a 10-cm dish of 90% confluent HEK293 cells. Viral expansion and purification was carried out as previously described (Colecraft et al. 2002).
Adult guinea pig ventricular myocytes were isolated by enzymatic digestion using a Langendorff perfusion apparatuses, and cultured as previously described (Miriyala et al. 2008). […] Heart cells were infected 2-3 hours after plating with 5-20 μl of adenoviral vector stock (≅10^11-10^12 viral particles/ml).
Whole-cell recordings of virally-infected cultured guinea pig ventricular myocytes were conducted at room temperature as previously described (Miriyala et al. 2008; Xu et al. 2010). […]

**Q.** Which “effect on relaxation of cardiomyocytes” value (isolated cardiomyocytes; cardiomyocytes from both pWT and AID-mutant α1C transgenic mice) does the source give for CC(C)NCC(O)c1ccc(O)c(O)c1 (stereo not drawn) [isoproterenol] here?
**A.** Its value is “enhanced relaxation”.

**Q.** What about the “increase in fractional shortening” value (isolated cardiomyocytes; transgenic pWT α1C cardiomyocytes) of the same molecule?
**A.** The value was 100%.

**Q.** And the “increase in fractional shortening” value (isolated cardiomyocytes; β-less AID-mutant α1C cardiomyocytes)?
**A.** Its value is 25%.

**Q.** And the “phosphorylation of phospholamban at Ser16 in response to isoproterenol” value (phospholamban)?
**A.** The value was “appropriately phosphorylated”.

**Q.** And the “shift of Vmid (V0.5) of steady-state activation” value (CaV1.2 channels [1]; GFP-WT β2b cardiomyocytes, 200 nM isoproterenol)?
**A.** Its value is −7.0 mV.

**Q.** What about the “increase of peak CaV1.2 current” value (CaV1.2 channels [1]; GFP-WT β2 expressing cells, 200 nM isoproterenol) of the same molecule?
**A.** The value was 1.5±0.1 fold.

**Q.** What about the “shift of Vmid (V0.5) of steady-state activation” value (CaV1.2 channels [1]; GFP-mutant β2b cardiomyocytes, 200 nM isoproterenol) of the same molecule?
**A.** The value was −7.5 mV.

**Q.** And the “increase of peak CaV1.2 current” value (CaV1.2 channels [1]; GFP-mutant β2 expressing cells, 200 nM isoproterenol)?
**A.** The value was 1.6±0.1 fold.

**Q.** What about the “shift of Vmid in the hyperpolarizing direction” value (CaV1.2 channels [1]; transgenic pWT α1C cardiomyocytes, 200 nM isoproterenol) of the same molecule?
**A.** Its value is 4.4 mV.

**Q.** What about the “increase of nisoldipine-insensitive current” value (CaV1.2 channels [1]; transgenic pWT α1C cardiomyocytes, 200 nM isoproterenol, 300 nM nisoldipine) of the same molecule?
**A.** Its value is 1.9±0.1 fold.

**Q.** What about the “increase in contractility in response to isoproterenol” value ([2]; control mice) of the same molecule?
**A.** Its value is 75-200%.

**Q.** What about the “increase in contractility in response to isoproterenol” value ([2]; mutant mice (CaV1.2 lacking AID)) of the same molecule?
**A.** Its value is 0-25%.

**Q.** And the “increase in cardiac contractility” value ([2]; pWT α1C hearts)?
**A.** The value was 3.3 fold.

**Q.** And the “increase in cardiac contractility” value ([2]; β-less AID-mutant transgenic hearts)?
**A.** Its value is 1.2 fold.

**Q.** For Nc1ncnc2c1nc(Br)n2C1OC2COP(O)(=S)OC2C1O (stereo not drawn) [Rp-8-Br-cAMPS], which “inhibition of nisoldipine-resistant basal current” value (CaV1.2 channels [1]; transgenic AID-mutant mice cardiomyocytes) is on record?
**A.** The value was “did not inhibit”.

**Q.** What about the “reversal of isoproterenol-mediated up-regulation of endogenous CaV1.2” value (CaV1.2 channels [3]) of the same molecule?
**A.** Its value is roughly 96%.

**Q.** Which results are given for C=C[C@@]1(C)CC(=O)[C@]2(O)[C@@]3(C)[C@@H](O)CCC(C)(C)[C@@H]3[C@H](O)[C@H](OC(C)=O)[C@@]2(C)O1 [forskolin]?
**A.** increase of transgenic pWT α1C Ca2+ currents (CaV1.2 channels [1]; transgenic pWT α1C cardiomyocytes, 10 μM forskolin, 300 nM nisoldipine): 1.8+0.1 fold; increase in whole-cell current amplitude (CaV1.2 channels [4]): 4- to 5 fold
